What is called IC50 is the concentration needed to halve the response being measured.

SMILES strings stand for the structures. Active and inactive are the calls of the source. The rule behind the calls is not given here.

For data set [1], the system named is HEK293. Put plainly: Drug uptake in HEK293 cells at 5 uM incubated for 1 hr by flow cytometry. Format: ADME, cell-based. To be noted: human, hek293, 1 h. In general terms: In flow cytometry, cells or beads pass a laser one at a time.
Data set [2] in a line: Cytotoxicity against HEK293 cells assessed as cell survival at 5 uM incubated for 1 hr by XTT assay. Format: cell-based. To be noted: human, read-out: Survival.
Data set [3] is described as follows: Inhibition of PA activity of human inducible 20S immunoproteasome incubated for 15 mins before fluorogenic substrate addition.
The nature of data set [4]: Inhibition of chymotrypsin-like activity of human inducible 20S immunoproteasome incubated for 15 mins before fluorogenic substrate addition.
Data set [5] in a line: Inhibition of PA activity of human constitutive 20S proteasome incubated for 15 mins before fluorogenic substrate addition.
Data set [6] is described as follows: Inhibition of trypsin-like activity of human inducible 20S immunoproteasome incubated for 15 mins before fluorogenic substrate addition.
Data set [7] in a line: Inhibition of trypsin-like activity of human constitutive 20S proteasome incubated for 15 mins before fluorogenic substrate addition.
A short description of data set [8]: Inhibition of chymotrypsin-like activity of human constitutive 20S proteasome incubated for 15 mins before fluorogenic substrate addition.
Data set [9] is described as follows: Drug uptake in nucleus of HEK293 cells at 5 uM incubated for 1 hr by DAPI staining based confocal microscopy. In kind it is ADME, cell-based. To be noted: human, hek293, 1 h.
In data set [10] the test system is Proteasome. The data set can be described thus: Inhibition of PA activity of proteasome in HEK293 cells incubated for 1 hr by proteasome Glo cell-based chemiluminescent assay. To be noted: Homo sapiens, HEK293, 1 h.
Data set [11] concerns Proteasome. The data set can be described thus: Reversible inhibition of PA activity of proteasome in HEK293 cells incubated for 1 hr by proteasome Glo cell-based chemiluminescent assay. To be noted: Homo sapiens.
The subject of data set [12] is Proteasome. Put plainly: Inhibition of trypsin-like activity of proteasome in HEK293 cells incubated for 1 hr by proteasome Glo cell-based chemiluminescent assay. To be noted: Homo sapiens, HEK293, 1 h.
Data set [13] relates to Proteasome. The data set can be described thus: Inhibition of chymotrypsin-like activity of proteasome in HEK293 cells incubated for 1 hr by proteasome Glo cell-based chemiluminescent assay. To be noted: Homo sapiens, HEK293, 1 h.
Data set [14] has as its system HEK293. The data set can be described thus: Reversible inhibition of chymotrypsin-like activity of proteasome in HEK293 cells incubated for 1 hr by proteasome Glo cell-based chemiluminescent assay. To be noted: Homo sapiens.
Data set [15] relates to Proteasome. Put plainly: Reversible inhibition of trypsin-like activity of proteasome in HEK293 cells incubated for 1 hr by proteasome Glo cell-based chemiluminescent assay. To be noted: Homo sapiens.

In the case of `COC(=O)CCCCCNC(=O)c1ccc(-c2c3ccc(=[N+](C)C)cc-3oc3cc(N(C)C)ccc23)c(C(=O)[O-])c1`, the Drug uptake result in [1] is reported as “Active”. Besides, in [2], the viability at 1 h, 5 µM is 67.6%.

`C[C@H](NC(=O)[C@H](Cc1ccc(OCc2ccccc2)cc1)NC(=O)OC(C)(C)C)C(=O)N[C@@H](C[C@]1(O)C(=O)Nc2ccccc21)C(=O)NCc1ccccc1`: the IC50 in data set [3] is 6160 nM; in data set [4], 2530 nM; in data set [5], 11500 nM; in data set [6], 27700 nM; in data set [7] it was 7100 nM; in [8], 3200 nM.

Consider `C[C@H](NC(=O)[C@H](Cc1ccc(OCc2ccccc2)cc1)NC(=O)CCCCCNC(=O)c1ccc(-c2c3ccc(=[N+](C)C)cc-3oc3cc(N(C)C)ccc23)c(C(=O)[O-])c1)C(=O)N[C@@H](C[C@]1(O)C(=O)Nc2ccccc21)C(=O)NCc1ccccc1`, for which, in data set [9], the Drug uptake result is reported as “Active”. The IC50 was found to be 640 nM in data set [3]; 560 nM in [4]; 402 nM in [10]; 990 nM in data set [5]; 1750 nM in data set [6]; 1240 nM in data set [7]. In addition, the results for the IC50 in [12], in [8] and in [13] were 521 nM, 480 nM and 65 nM, respectively. Moreover, the viability at 1 h, 5 µM in data set [2] worked out at 78.2%. The inhibition entry in [11], in [14] and in data set [15] was “Active” in each case.

Consider `C[C@H](NC(=O)[C@H](Cc1ccc(OCc2ccccc2)cc1)NC(=O)c1ccc(-c2c3ccc(=[N+](C)C)cc-3oc3cc(N(C)C)ccc23)c(C(=O)[O-])c1)C(=O)N[C@@H](C[C@]1(O)C(=O)Nc2ccccc21)C(=O)NCc1ccccc1`, for which the Drug uptake entry in data set [9] and in [1] was “Active” each time. The IC50 in data set [3] stood at 830 nM; in data set [4], 420 nM; in [10], 1120 nM; in [5], 1080 nM; in data set [6], 3530 nM; in [7], 1630 nM. Moreover, the IC50 amounted to 2480 nM in [12], 430 nM in [8] and 289 nM in [13]. In addition, the viability at 1 h, 5 µM in [2] turned out to be 90.1%.

With `C[C@H](NC(=O)[C@H](Cc1ccc(OCc2ccccc2)cc1)NC(=O)c1ccc(-c2c3ccc(=O)cc-3oc3cc(O)ccc23)c(C(=O)O)c1)C(=O)N[C@@H](C[C@]1(O)C(=O)Nc2ccccc21)C(=O)NCc1ccccc1`, the IC50 in [3] worked out at 7060 nM; in [4], 1490 nM; in data set [5], 9520 nM; in data set [6] it was 2430 nM; in data set [7], 1930 nM; in data set [8] it was 2590 nM.

In the case of `C[C@H](NC(=O)[C@H](Cc1ccc(OCc2ccccc2)cc1)NC(=O)CCCCCNC(=O)CCCCCNC(=O)CCCCCNC(=O)c1ccc(-c2c3ccc(=[N+](C)C)cc-3oc3cc(N(C)C)ccc23)c(C(=O)[O-])c1)C(=O)N[C@@H](C[C@]1(O)C(=O)Nc2ccccc21)C(=O)NCc1ccccc1`, the Drug uptake result in data set [9] is “Active”. Besides, the IC50 in data set [3] came out at 740 nM; in data set [4], 670 nM; in data set [10], 596 nM; in data set [5], 1370 nM; in [6] it was 1730 nM; in data set [7], 1280 nM. Moreover, the IC50 in data set [12] is 515 nM; in data set [8], 490 nM; in data set [13] it was 125 nM. Besides, the viability at 1 h, 5 µM in data set [2] was 100%.

The values above are taken from ChEMBL document CHEMBL3351843, “Noncovalent fluorescent probes of human immuno- and constitutive proteasomes” (J Med Chem, 2014).
